Results reported in patent US8124793B2, “Derivatives of ethylene methanedisulfonate as cancer chemotherapeutic agents” (priority 2007, dated 2012).

Legend:
Format in all cases: cell-based
[1] = test system: SK-MEL-28; assay: NCI screen, growth of human tumor cells: Melanoma SK-MEL-28; details: SK-MEL-28 (Melanoma), 10^−4 molar
Experimental: (§1) In the NCI screening process, each compound was tested and described by a minimum of 60 data points. The test data include, but are not limited to the type of cancer, the molar concentration used in the screen, and the percent growth of the cancer. In some cases, NMR and elemental analysis were used for structural assignment.

[2] = test system: SNB-19; assay: NCI screen, growth of human tumor cells: CNS Cancer SNB-19; details: SNB-19 (CNS Cancer), 10^−4 molar
Experimental: as §1

[3] = test system: MCF7/ADR-RES; assay: NCI screen, growth of human tumor cells: Breast Cancer MCF7/ADR-RES; details: MCF7/ADR-RES (Breast Cancer), 10^−4 molar
Experimental: as §1

[4] = test system: U-251; assay: NCI screen, growth of human tumor cells: CNS Cancer U-251; details: U251, 10^−4 molar
Experimental: as §1

[5] = test system: HCT-15; assay: NCI screen, growth of human tumor cells: Colon Cancer HCT-15
Experimental: as §1

[6] = test system: CCRF-CEM; assay: NCI screen, growth of human tumor cells: Leukemia CCRF-CEM; details: CCRF-CEM (Leukemia), 10^−4 molar
Experimental: as §1

[7] = test system: SF-539; assay: NCI screen, growth of human tumor cells: CNS Cancer SF-539; details: SF-539 (CNS Cancer), 10^−4 molar
Experimental: as §1

[8] = test system: NCI-H460; assay: NCI screen, growth of human tumor cells: Non-Small Cell Lung NCI-H460; details: NCI-H460 (Non-Small Cell Lung), 10^−4 molar
Experimental: as §1

[9] = test system: PC-3; assay: NCI screen, growth of human tumor cells: Prostate Cancer PC-3; details: PC-3 (Prostate Cancer), 10^−4 molar
Experimental: as §1

[10] = test system: RPMI-8226; assay: NCI screen, growth of human tumor cells: Leukemia RPMI-8226; details: RPMI-8226 (Leukemia), 10^−4 molar
Experimental: as §1

[11] = test system: IGROVI; assay: NCI screen, growth of human tumor cells: Ovarian Cancer IGROVI; details: for % Growth: IGROVI
Experimental: as §1

[12] = test system: SW620; assay: NCI screen, growth of human tumor cells: Colon Cancer SW620; details: SW620 (Colon Cancer), 10^−4 molar
Experimental: as §1

[13] = test system: UO-31; assay: NCI screen, growth of human tumor cells: Renal Cancer UO-31; details: UO-31 (Renal Cancer), 10^−4 molar
Experimental: as §1

[14] = test system: RXF-393; assay: NCI screen, growth of human tumor cells: Renal Cancer RXF-393; details: RXF-393 (Renal Cancer), 10^−4 molar
Experimental: as §1

[15] = test system: human cancer cells; assay: NCI screen summary over the cancers tested (negative growth of human cancer cells); details: 10^−4 M conc.; cancers with negative growth / cancers tested
Experimental: as §1
The derivatives in the tables are grouped using the same category as in the tables 1-6.

[16] = test system: HCT-116; assay: NCI screen, growth of human tumor cells: Colon Cancer HCT-116
Experimental: as §1

[17] = test system: K562; assay: NCI screen, growth of human tumor cells: Leukemia K562; details: K562 (Leukemia), 10^−4 molar
Experimental: as §1

[18] = test system: SR; assay: NCI screen, growth of human tumor cells: Leukemia SR; details: SR (Leukemia), 10^−4 molar
Experimental: as §1

[19] = test system: HS 578T; assay: NCI screen, growth of human tumor cells: Breast Cancer HS 578T; details: HS 578T (Breast Cancer), 10^−4 molar
Experimental: as §1

[20] = test system: HOP-92; assay: NCI screen, growth of human tumor cells: Non-Small Cell Lung HOP-92; details: HOP-92 (Non-Small Cell Lung), 10^−4 molar
Experimental: as §1

[21] = test system: MDA-MB-231/ATCC; assay: NCI screen, growth of human tumor cells: Breast Cancer MDA-MB-231/ATCC; details: MDA-MB-231/ATCC (Breast Cancer), 10^−4 molar
Experimental: as §1

[22] = test system: UACC-62; assay: NCI screen, growth of human tumor cells: Melanoma UACC-62; details: UACC-62 (Melanoma), 10^−4 molar
Experimental: as §1

[23] = test system: MCF 7; assay: NCI screen, growth of human tumor cells: Breast Cancer MCF 7; details: MCF 7 (Breast Cancer), 10^−4 molar
Experimental: as §1

[24] = test system: OVCAR-8; assay: NCI screen, growth of human tumor cells: Ovarian Cancer OVCAR-8; details: OVCAR-8 (Ovarian Cancer), 10^−4 molar
Experimental: as §1

[25] = test system: NCI-H23; assay: NCI screen, growth of human tumor cells: Non-Small Cell Lung NCI-H23; details: NCI-H23 (Non-Small Cell Lung), 10^−4 molar
Experimental: as §1

[26] = test system: COLO205; assay: NCI screen, growth of human tumor cells: Colon Cancer COLO205; details: COLO205 (Colon Cancer), 10^−4 molar
Experimental: as §1

[27] = test system: BT-549; assay: NCI screen, growth of human tumor cells: Breast Cancer BT-549; details: BT-549 (Breast Cancer), 10^−4 molar
Experimental: as §1

[28] = test system: 786-0; assay: NCI screen, growth of human tumor cells: Renal Cancer 786-0; details: 786-0 (Renal Cancer), 10^−4 molar
Experimental: as §1

[29] = test system: DU-145; assay: NCI screen, growth of human tumor cells: Prostate Cancer DU-145; details: DU-145 (Prostate Cancer), 10^−4 molar
Experimental: as §1

[30] = test system: HT29; assay: NCI screen, growth of human tumor cells: Colon Cancer HT29; details: HT29 (Colon Cancer), 10^−4 molar
Experimental: as §1

[31] = test system: UACC-257; assay: NCI screen, growth of human tumor cells: Melanoma UACC-257; details: UACC-257 (Melanoma), 10^−4 molar
Experimental: as §1

[32] = test system: KM12; assay: NCI screen, growth of human tumor cells: Colon Cancer KM12; details: KM12 (Colon Cancer), 10^−4 molar
Experimental: as §1

[33] = test system: SN12C; assay: NCI screen, growth of human tumor cells: Renal Cancer SN12C; details: SN12C (Renal Cancer), 10^−4 molar
Experimental: as §1

[34] = test system: HOP-62; assay: NCI screen, growth of human tumor cells: Non-Small Cell Lung HOP-62; details: HOP-62 (Non-Small Cell Lung), 10^−4 molar
Experimental: as §1

[35] = test system: SF-268; assay: NCI screen, growth of human tumor cells: CNS Cancer SF-268; details: SF-268 (CNS Cancer), 10^−4 molar
Experimental: as §1

[36] = test system: OVCAR-5; assay: NCI screen, growth of human tumor cells: Ovarian Cancer OVCAR-5; details: OVCAR-5 (Ovarian Cancer), 10^−4 molar
Experimental: as §1

[37] = test system: NCI-H226; assay: NCI screen, growth of human tumor cells: Non-Small Cell Lung NCI-H226; details: NCI-H226 (Non-Small Cell Lung), 10^−4 molar
Experimental: as §1

[38] = test system: ACHN; assay: NCI screen, growth of human tumor cells: Renal Cancer ACHN; details: ACHN (Renal Cancer), 10^−4 molar
Experimental: as §1

[39] = test system: OVCAR-3; assay: NCI screen, growth of human tumor cells: Ovarian Cancer OVCAR-3; details: OVCAR-3 (Ovarian Cancer), 10^−4 molar
Experimental: as §1

[40] = test system: M14; assay: NCI screen, growth of human tumor cells: Melanoma M14; details: M14 (Melanoma), 10^−4 molar
Experimental: as §1

[41] = test system: MALME-3M; assay: NCI screen, growth of human tumor cells: Melanoma MALME-3M; details: MALME-3M (Melanoma), 10^−4 molar
Experimental: as §1

[42] = test system: CAKI-1; assay: NCI screen, growth of human tumor cells: Renal Cancer CAKI-1; details: CAKI-1 (Renal Cancer), 10^−4 molar
Experimental: as §1

[43] = test system: EKVX; assay: NCI screen, growth of human tumor cells: Non-Small Cell Lung EKVX; details: EKVX
Experimental: as §1

## CC=CC(=O)C1(Cc2ccc3c(c2)C(=O)c2ccccc2C3=O)S(=O)(=O)OCCOS1(=O)=O [NSC 731263]
[1]
  percent of growth of human tumor cells: −23%
[2]
  percent of growth of human tumor cells: 10%
[3]
  percent of growth of human tumor cells: 11%
[4]
  % Growth: −85%
[5]; HCT-15, 10^−4 molar
  % Growth: −65%
[6]
  percent of growth of human tumor cells: 15%
[7]
  percent of growth of human tumor cells: −23%
[8]
  percent of growth of human tumor cells: 2%
[9]
  percent of growth of human tumor cells: 11%
[10]
  percent of growth of human tumor cells: −7%
[11]; IGROVI (Ovarian Cancer), 10^−4 molar
  percent of growth of human tumor cells: 3%
[12]
  percent of growth of human tumor cells: −38%
[13]
  percent of growth of human tumor cells: 1%
[14]
  percent of growth of human tumor cells: −45%
[15]
  Percentage of cancers showing negative growth cancers tested: 10^−4 M conc. = 18/36 = 50%
[16]; HCT-116, 10^−4 molar
  % Growth: −100%
[17]
  percent of growth of human tumor cells: 12%
[18]
  percent of growth of human tumor cells: 24%
[19]
  percent of growth of human tumor cells: −18%
[20]
  percent of growth of human tumor cells: −16%
[21]
  percent of growth of human tumor cells: −33%
[22]
  percent of growth of human tumor cells: 16%
[23]
  percent of growth of human tumor cells: −17%
[24]
  percent of growth of human tumor cells: −39%
[25]
  percent of growth of human tumor cells: 31%
[26]
  percent of growth of human tumor cells: 5%
[27]
  percent of growth of human tumor cells: −20%
[28]
  percent of growth of human tumor cells: 1%
[29]
  percent of growth of human tumor cells: 1%
[30]
  percent of growth of human tumor cells: 1%
[31]
  percent of growth of human tumor cells: −20%
[32]
  percent of growth of human tumor cells: 2%
[33]
  percent of growth of human tumor cells: −53%
[34]
  percent of growth of human tumor cells: −38%
[35]
  percent of growth of human tumor cells: −24%
[36]
  percent of growth of human tumor cells: 20%
[37]
  percent of growth of human tumor cells: 10%

## O=C(c1ccccc1S(=O)(=O)O)C1S(=O)(=O)OCCOS1(=O)=O [NSC 693880]
[3]
  percent of growth of human tumor cells: 4%
[5]; HCT-15, 10^−4 molar
  % Growth: −41%
[5]; HCT-15, 10^−5 molar
  % Growth: 40%
[38]
  percent of growth of human tumor cells: 8%
[39]
  percent of growth of human tumor cells: 76%
[40]
  percent of growth of human tumor cells: −4%
[8]
  percent of growth of human tumor cells: −11%
[9]
  percent of growth of human tumor cells: 5%
[11]; 10^−4 molar
  % Growth: −21%
[11]; 10^−5 molar
  % Growth: 37%
[11]; 10^−6 molar
  % Growth: 60%
[15]
  Percentage of cancers showing negative growth cancers tested: 10^−4 M conc. = 8/17 = 47%
[41]
  percent of growth of human tumor cells: −15%
[16]; HCT-116 (Colon Cancer), 10^−4 molar
  percent of growth of human tumor cells: 20%
[21]
  percent of growth of human tumor cells: 25%
[23]
  percent of growth of human tumor cells: −1%
[24]
  percent of growth of human tumor cells: −33%
[25]
  percent of growth of human tumor cells: 12%
[26]
  percent of growth of human tumor cells: 5%
[42]
  percent of growth of human tumor cells: −8%
[43]; 10^−4 molar
  % Growth: 25%
[43]; 10^−5 molar
  % Growth: 6%
